System: TNF-α
Test: Serum TNF induced by LPS in the mouse after phospholipid pretreatment (L-929 cytotoxicity bioassay)
Assay type: in vivo
Conditions: S. Thyphi LPS 5 µ i.p., blood 60' later; for TNF-α title treated: average ± SEM
Experimental: Utilized are: • 170 Charles River CD-1 albino male mice weighing about 25-30 g • 6 New Zealand male rabbits weighing about 2-2.5 kg.
The animals after 90' from the last phospholipidic treatment or with THIS (as indicated later-on), are treated by parenteral route with S. Thyphi or E. Coli (Sigma) lipopolysaccharide.
Particularly: • mouse: injection of 5 µg LPS i.p. (1st experiment) or 25 µg LPS i.v. (2nd experiment) the blood sample is taken after 60 min. • rabbit: injection of 1 µg LPS i.v.. The blood sample is taken after 90 minutes.
The following products are tested: • BC-PS (phosphatidylserine in the commercially available form consisting of a composition comprising: phosphatidylserine extracted from bovine brain as described in example 1) • PS (phosphatidylserine) • PC (phosphatidylcholine) • PG (phosphatidylglycerol) • DPS (lysophosphatidylserine) • PE (phosphatidylethanolamine) • […] (1-myristoyl-2-deoxi-3-glycerophospho-L-serine) The phospholipids purity and their composition are determined by thin layer bidimensional chromatography (Punzi, L. et al.: Phospholipids in inflammatory synovial effusions. Rheumatol. Int. 6, 7-11, 1986).
Phospholipids are then solubilized in 50 mM TRIS-HCl pH 7.8 and suitably sonicated.
The phospholipidic dispersion is then injected in animals under the following conditions: • mouse: BC-PS 15-30 mg/kg/die i.p. for 3 days or 30 mg/kg/die i.v. for 3 days DPS, PSS₄ 20 mg/kg/die i.p. for 3 days PS, PC, PG, PE 25 mg/kg/die i.p. for 3 days • rabbit: 30 mg/kg/die i.v. for 5 days.
LPS is then administered following the above mentioned conditions with successive blood sample for the seric TNF dosage.
The level of seric TNF was evaluated by biological dosage, using the fibroblasts line L-929 of murine sarcoma (American type culture collection). In fact TNF is cytotoxic against said line (Meager A. et al.: Assays for tumor necrosis factor and related cytokines. J. Immunol. Methods 116: 1-17, 1989).
Shortly, 5 x 10⁴ cells are cultured in 96 well plates with 0.1 ml RPMI 1640 medium containing 10 % (v/v) of bovine serum inactivated at 56 °C for 30'.
After 18 hours the medium is replaced with 0.1 ml of fresh medium, containing serial dilutions of serum samples to be tested in the presence of actinomycin D (2 µg/ml) and lithium chloride 20 mM in order to increase the method sensitivity, namely the TNF cytotoxicity (Beyaert R. et al.: Lithium chloride potentiates tumor necrosis factor-mediated cytotoxicity in vitro and in vivo. Proc. Natl. Acad. Sci. 86: 9494-9498, 1989).
An […] (4000 U/ml of TNF-α(Genzyme) is added to 3 wells in every plate and said wells are utilized as positive control in order to check the sensitivity level of the cellular line, namely to verify the specificity dosage.
As negative controls, wells containing untreated mice serum, are used.
After 18 hours the medium is sucked and replaced with 0.1 ml of a saline solution containing 30 mM of glucose and 0.45 mg/ml of MTT tetrazolium (3-[4,5-dimethylthiazol-2-yl]-2,5 diphenyl-tetrazolium bromide. Then, after 4 hours, 0.1 ml of an acid solution of isopropanol (0.08 N HCl in isopropanol) is added and the absorbance is read by using a plate spectrophotometer scanner provided with a filter specific for 570 nm absorbance.
TNF cytotoxicity is calculated, by applying the formula: [formula] TNF-α title in serum samples is expressed in unit/ml and corresponds to the inverse of the dilution bringing to 50 % of cellular survival (Meager A. et al.: Assays for tumor necrosis factor and related cytokines. J. Immunol. Methods 116: 1-17, 1989).
In order to validate the test an anti-TNF-α murine antibody (Genzyme) is used which, as foreseen (see the results) blocks completely the cytotoxicity of murine serum but not the one of rabbit serum.

Row | Molecule | TNF-α title treated (dose 20 mg/kg i.p. for 3 days) | Inhibition (%) (dose 20 mg/kg i.p. for 3 days) | Inhibition (%) (dose 25 mg/kg i.p. for 3 days) | TNF-α title treated (dose 25 mg/kg i.p. for 3 days)
1 | CCCCCCCCCCCCCC(=O)OCCCOP(=O)(O)OC[C@H](N)C(=O)O [PSS₄, 1-myristoyl-2-deoxi-3-glycerophospho-L-serine] | 50±16 (5) U/serum ml | – | – | –
2 | lysophosphatidylserine [DPS] | 45±11 (5) U/serum ml | 80 | – | –
3 | phosphatidylcholine [PC, reference compound] | – | – | 16% | 176±53 (12) U/serum ml
4 | phosphatidylethanolamine [PE] | – | – | 56% | 137±46 (6) U/serum ml
5 | phosphatidylglycerol [PG, reference compound] | – | – | inactive | 238±37 (18) U/serum ml
6 | phosphatidylserine [PS] | – | – | 68% | 81±21 (9) U/serum ml
